{"source": "paper PMC8426238", "about": "“Synthesis and preclinical evaluation of [^11C]MTP38 as a novel PET ligand for phosphodiesterase 7 in the brain” (European Journal of Nuclear Medicine and Molecular Imaging, 2021)", "key": {"[1]": {"target": "T1, Adenosine A3 (Homo sapiens, UniProt P0DMS8)", "T1 construct": "purchased Eurofins Panlabs Discovery Services (Taiwan)", "assay": "off-target screen panel", "type": "binding", "details": "Human recombinant, [^125I]AB-MECA"}, "[2]": {"target": "T2, Histamine H1 (Homo sapiens, UniProt P35367)", "T2 construct": "purchased Eurofins Panlabs Discovery Services (Taiwan)", "assay": "off-target screen panel", "type": "binding", "details": "Human recombinant, [^3H]Pyrilamine"}, "[3]": {"target": "T3, Neuropeptide Y Y2 (Homo sapiens, UniProt P49146)", "T3 construct": "purchased Eurofins Panlabs Discovery Services (Taiwan)", "T3 sequence (P49146 whole entry)": "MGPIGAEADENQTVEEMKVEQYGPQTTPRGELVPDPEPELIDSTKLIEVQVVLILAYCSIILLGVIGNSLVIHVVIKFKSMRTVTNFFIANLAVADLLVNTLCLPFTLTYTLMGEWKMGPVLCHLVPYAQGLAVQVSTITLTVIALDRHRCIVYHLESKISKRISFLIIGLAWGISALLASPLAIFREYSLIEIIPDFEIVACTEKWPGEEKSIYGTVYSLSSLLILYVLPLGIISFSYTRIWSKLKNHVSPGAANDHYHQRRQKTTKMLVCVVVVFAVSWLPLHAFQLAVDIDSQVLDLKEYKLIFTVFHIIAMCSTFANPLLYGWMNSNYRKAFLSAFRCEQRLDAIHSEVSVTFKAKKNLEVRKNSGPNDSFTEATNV", "assay": "off-target screen panel", "type": "binding", "details": "Human KAN-TS cells, [^125I]Peptide YY"}, "[4]": {"target": "T4, Dopamine D2S (Homo sapiens, UniProt P14416)", "T4 construct": "purchased Eurofins Panlabs Discovery Services (Taiwan)", "assay": "off-target screen panel", "type": "binding", "details": "Human recombinant, [^3H]Spiperone"}, "[5]": {"test_system": "GABAA, Muscimol, Central", "assay": "off-target screen panel", "type": "binding", "details": "Rat brain (minus cerebellum), [^3H]Muscimol"}, "[6]": {"target": "T5, Androgen (Testosterone) (Homo sapiens, UniProt P10275)", "T5 construct": "purchased Eurofins Panlabs Discovery Services (Taiwan)", "T5 sequence (P10275 whole entry)": "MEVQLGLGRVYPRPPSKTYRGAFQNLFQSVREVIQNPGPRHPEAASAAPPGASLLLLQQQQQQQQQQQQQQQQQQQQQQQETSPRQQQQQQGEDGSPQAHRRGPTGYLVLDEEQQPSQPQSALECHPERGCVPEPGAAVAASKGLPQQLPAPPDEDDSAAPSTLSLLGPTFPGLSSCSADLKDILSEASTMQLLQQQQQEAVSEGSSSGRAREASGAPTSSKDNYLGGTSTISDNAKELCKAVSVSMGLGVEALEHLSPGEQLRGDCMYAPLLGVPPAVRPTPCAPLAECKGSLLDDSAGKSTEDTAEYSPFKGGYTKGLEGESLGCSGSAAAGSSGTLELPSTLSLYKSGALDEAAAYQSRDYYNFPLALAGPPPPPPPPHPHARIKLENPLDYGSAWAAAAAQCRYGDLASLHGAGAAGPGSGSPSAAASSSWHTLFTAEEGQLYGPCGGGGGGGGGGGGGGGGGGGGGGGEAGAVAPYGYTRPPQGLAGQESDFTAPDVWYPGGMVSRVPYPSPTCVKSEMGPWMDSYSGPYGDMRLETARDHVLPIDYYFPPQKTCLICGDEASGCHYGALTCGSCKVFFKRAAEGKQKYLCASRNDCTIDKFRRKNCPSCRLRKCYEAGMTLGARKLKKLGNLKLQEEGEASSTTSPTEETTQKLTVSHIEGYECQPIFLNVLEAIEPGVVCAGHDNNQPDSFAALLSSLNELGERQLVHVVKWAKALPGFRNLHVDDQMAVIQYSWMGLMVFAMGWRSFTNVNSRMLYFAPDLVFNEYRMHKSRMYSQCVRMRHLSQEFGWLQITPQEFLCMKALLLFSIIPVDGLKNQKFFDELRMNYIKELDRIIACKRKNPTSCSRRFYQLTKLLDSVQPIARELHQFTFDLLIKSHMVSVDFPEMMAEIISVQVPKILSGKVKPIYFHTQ", "assay": "off-target screen panel", "type": "binding", "details": "Human LNCaP clone, [^3H]Methyltrienolone"}, "[7]": {"target": "T6, Glucocorticoid (Homo sapiens, UniProt P04150)", "T6 construct": "purchased Eurofins Panlabs Discovery Services (Taiwan)", "T6 sequence (P04150 whole entry)": "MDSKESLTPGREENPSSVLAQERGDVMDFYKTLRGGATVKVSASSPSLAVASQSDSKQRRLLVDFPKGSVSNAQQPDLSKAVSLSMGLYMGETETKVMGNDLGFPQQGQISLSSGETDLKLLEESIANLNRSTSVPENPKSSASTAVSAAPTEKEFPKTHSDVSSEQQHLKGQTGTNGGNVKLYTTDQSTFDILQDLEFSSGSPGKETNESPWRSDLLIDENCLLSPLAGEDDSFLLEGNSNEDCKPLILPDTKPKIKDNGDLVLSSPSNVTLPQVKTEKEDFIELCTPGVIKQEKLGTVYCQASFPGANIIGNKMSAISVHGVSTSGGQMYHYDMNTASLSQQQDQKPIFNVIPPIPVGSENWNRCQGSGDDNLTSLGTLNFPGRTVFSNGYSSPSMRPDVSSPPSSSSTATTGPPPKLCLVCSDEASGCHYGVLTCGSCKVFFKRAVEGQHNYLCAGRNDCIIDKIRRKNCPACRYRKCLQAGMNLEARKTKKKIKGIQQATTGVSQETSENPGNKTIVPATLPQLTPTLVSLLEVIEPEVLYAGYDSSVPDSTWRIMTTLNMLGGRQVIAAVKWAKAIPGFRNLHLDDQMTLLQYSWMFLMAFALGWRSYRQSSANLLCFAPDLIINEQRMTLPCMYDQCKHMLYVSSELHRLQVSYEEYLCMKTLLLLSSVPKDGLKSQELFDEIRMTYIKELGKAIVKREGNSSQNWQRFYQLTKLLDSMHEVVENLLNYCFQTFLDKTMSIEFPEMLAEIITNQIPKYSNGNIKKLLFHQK", "assay": "off-target screen panel", "type": "binding", "details": "Human recombinant, [^3H]Dexamethasone"}, "[8]": {"test_system": "Calcium Channel L-Type, Dihydropyridine", "assay": "off-target screen panel", "type": "binding", "details": "Rat cerebral cortex, [^3H]Nitrendipine"}, "[9]": {"target": "T7, Histamine H2 (Homo sapiens, UniProt P25021)", "T7 construct": "purchased Eurofins Panlabs Discovery Services (Taiwan)", "assay": "off-target screen panel", "type": "binding", "details": "Human recombinant, [^125I]Aminopotentidine"}, "[10]": {"target": "Glutamate, NMDA, Glycine (Rattus norvegicus, UniProt P35439)", "assay": "off-target screen panel", "type": "binding", "details": "Rat cerebral cortex, [^3H]MDL 105,519"}, "[11]": {"target": "T8, Leukotriene, Cysteinyl CysLT1 (Homo sapiens, UniProt Q9Y271)", "T8 construct": "purchased Eurofins Panlabs Discovery Services (Taiwan)", "T8 sequence (Q9Y271 whole entry)": "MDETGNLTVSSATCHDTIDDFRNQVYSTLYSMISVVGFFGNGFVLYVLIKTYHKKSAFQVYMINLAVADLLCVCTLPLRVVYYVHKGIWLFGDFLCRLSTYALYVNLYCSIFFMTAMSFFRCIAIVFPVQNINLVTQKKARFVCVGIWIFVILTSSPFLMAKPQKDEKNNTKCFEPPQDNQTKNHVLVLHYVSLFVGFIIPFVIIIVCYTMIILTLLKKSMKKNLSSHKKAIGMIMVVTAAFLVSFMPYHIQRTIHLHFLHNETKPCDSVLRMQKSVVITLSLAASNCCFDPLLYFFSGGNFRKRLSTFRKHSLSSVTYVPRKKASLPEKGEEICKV", "assay": "off-target screen panel", "type": "binding", "details": "Human recombinant, [^3H]LTD4"}, "[12]": {"target": "T9, GABAB1A (Homo sapiens, UniProt Q9UBS5)", "T9 construct": "purchased Eurofins Panlabs Discovery Services (Taiwan)", "assay": "off-target screen panel", "type": "binding", "details": "Human recombinant, [^3H]CGP-54626"}, "[13]": {"target": "T10, Serotonin (5-Hydroxytryptamine) 5-HT2B (Homo sapiens, UniProt P41595)", "T10 construct": "purchased Eurofins Panlabs Discovery Services (Taiwan)", "T10 sequence (P41595 whole entry)": "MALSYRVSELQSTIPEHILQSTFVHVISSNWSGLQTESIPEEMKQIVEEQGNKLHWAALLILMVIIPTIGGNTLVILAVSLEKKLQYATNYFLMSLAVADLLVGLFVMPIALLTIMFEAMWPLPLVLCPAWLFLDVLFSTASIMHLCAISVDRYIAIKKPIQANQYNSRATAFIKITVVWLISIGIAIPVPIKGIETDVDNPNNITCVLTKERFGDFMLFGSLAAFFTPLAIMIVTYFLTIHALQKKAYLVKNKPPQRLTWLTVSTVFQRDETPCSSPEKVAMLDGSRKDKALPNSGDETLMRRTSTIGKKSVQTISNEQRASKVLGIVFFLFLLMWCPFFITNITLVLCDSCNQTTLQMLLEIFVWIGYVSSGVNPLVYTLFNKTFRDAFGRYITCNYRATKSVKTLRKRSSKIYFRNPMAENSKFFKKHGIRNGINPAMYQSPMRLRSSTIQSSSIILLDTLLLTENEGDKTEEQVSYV", "assay": "off-target screen panel", "type": "binding", "details": "Human recombinant, [^3H]Lysergic acid diethylamide (LSD)"}, "[14]": {"target": "T11, Dopamine D1 (Homo sapiens, UniProt P21728)", "T11 construct": "purchased Eurofins Panlabs Discovery Services (Taiwan)", "T11 sequence (P21728 whole entry)": "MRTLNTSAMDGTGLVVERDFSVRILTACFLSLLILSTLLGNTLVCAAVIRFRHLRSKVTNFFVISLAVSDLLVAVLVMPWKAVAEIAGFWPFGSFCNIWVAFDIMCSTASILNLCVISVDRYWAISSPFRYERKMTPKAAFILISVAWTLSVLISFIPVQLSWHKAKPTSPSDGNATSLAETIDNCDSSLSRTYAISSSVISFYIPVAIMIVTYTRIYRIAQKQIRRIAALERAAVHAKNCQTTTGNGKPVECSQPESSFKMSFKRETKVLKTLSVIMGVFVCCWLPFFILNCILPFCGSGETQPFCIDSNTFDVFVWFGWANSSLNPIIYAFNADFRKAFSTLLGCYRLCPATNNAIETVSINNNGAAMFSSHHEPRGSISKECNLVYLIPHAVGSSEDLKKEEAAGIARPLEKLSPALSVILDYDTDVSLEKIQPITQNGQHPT", "assay": "off-target screen panel", "type": "binding", "details": "Human recombinant, [^3H]SCH-23390"}, "[15]": {"test_system": "Glutamate, NMDA, Phencyclidine", "assay": "off-target screen panel", "type": "binding", "details": "Rat cerebral cortex, [^3H]TCP"}, "[16]": {"target": "T12, Adrenergic β1 (Homo sapiens, UniProt P08588)", "T12 construct": "purchased Eurofins Panlabs Discovery Services (Taiwan)", "assay": "off-target screen panel", "type": "binding", "details": "Human recombinant, [^125I]Cyanopindolol"}, "[17]": {"target": "T13, Adrenergic α1D (Homo sapiens, UniProt P25100)", "T13 construct": "purchased Eurofins Panlabs Discovery Services (Taiwan)", "T13 sequence (P25100 whole entry)": "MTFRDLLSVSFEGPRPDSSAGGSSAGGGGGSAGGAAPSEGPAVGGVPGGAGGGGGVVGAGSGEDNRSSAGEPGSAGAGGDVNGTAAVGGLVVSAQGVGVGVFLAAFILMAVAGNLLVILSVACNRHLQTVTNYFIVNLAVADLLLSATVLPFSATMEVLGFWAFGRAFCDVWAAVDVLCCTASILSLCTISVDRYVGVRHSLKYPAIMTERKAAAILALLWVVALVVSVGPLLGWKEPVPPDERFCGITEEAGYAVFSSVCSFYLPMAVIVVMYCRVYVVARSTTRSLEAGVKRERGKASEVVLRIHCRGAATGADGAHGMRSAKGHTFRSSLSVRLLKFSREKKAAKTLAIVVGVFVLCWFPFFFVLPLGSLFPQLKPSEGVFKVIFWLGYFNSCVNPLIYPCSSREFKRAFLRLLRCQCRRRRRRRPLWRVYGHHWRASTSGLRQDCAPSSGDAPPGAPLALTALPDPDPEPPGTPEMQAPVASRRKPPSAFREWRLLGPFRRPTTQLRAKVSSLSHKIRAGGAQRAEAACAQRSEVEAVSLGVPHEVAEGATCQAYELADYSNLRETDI", "assay": "off-target screen panel", "type": "binding", "details": "Human recombinant, [^3H]Prazosin"}, "[18]": {"target": "T14, Bradykinin B1 (Homo sapiens, UniProt P46663)", "T14 construct": "purchased Eurofins Panlabs Discovery Services (Taiwan)", "assay": "off-target screen panel", "type": "binding", "details": "Human IMR-90 cells, [^3H](Des-Arg^10)-Kallidin"}, "[19]": {"target": "T15, Dopamine D3 (Homo sapiens, UniProt P35462)", "T15 construct": "purchased Eurofins Panlabs Discovery Services (Taiwan)", "assay": "off-target screen panel", "type": "binding", "details": "Human recombinant, [^3H]Spiperone"}, "[20]": {"target": "T16, Opiate κ (OP2, KOP) (Homo sapiens, UniProt P41145)", "T16 construct": "purchased Eurofins Panlabs Discovery Services (Taiwan)", "T16 sequence (P41145 whole entry)": "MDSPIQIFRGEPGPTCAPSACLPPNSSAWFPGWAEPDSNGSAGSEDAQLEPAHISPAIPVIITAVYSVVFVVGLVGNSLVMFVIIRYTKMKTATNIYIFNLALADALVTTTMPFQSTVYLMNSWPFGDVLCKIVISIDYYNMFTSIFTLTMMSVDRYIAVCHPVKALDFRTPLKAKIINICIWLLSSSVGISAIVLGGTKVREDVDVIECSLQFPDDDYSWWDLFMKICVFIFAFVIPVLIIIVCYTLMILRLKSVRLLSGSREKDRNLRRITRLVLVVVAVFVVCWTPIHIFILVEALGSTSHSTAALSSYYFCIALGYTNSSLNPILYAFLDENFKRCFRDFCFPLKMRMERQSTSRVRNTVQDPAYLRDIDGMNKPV", "assay": "off-target screen panel", "type": "binding", "details": "Human recombinant, [^3H]Diprenorphine"}, "[21]": {"test_system": "PDE7", "assay": "In vitro autoradiography of monkey brain sections with [^11C]MTP38", "type": "binding, rhesus monkeys", "details": "[^11C]MTP38 2 nM, unlabeled MTP38 10 μM", "description": "In vitro autoradiography was performed using 20-μm-thick fresh-frozen brain sections derived from Sprague-Dawley rats and rhesus monkeys. The sections were preincubated for 10 min in 50 mM Tris-HCl buffer (pH 7.4) at room temperature. These samples were then incubated for 60 min at room temperature in fresh buffer containing [^11C]MTP38 (2 nM) with or without unlabeled MTP38 (10 μM), MTP-X (4 μM), or MT-3014 (40 nM). The concentrations of MTP-X and MT-3014 were more than 400-fold of reported IC50 values of these agents. After the incubation, the brain sections were immersed twice in cold buffer for 3 min, dipped in cold distilled water for 10 s, and dried with warm airflow. Then the sections were contacted with imaging plates (BAS-MS2025, Fujifilm, Tokyo, Japan) for 60 min. The imaging plates were scanned with an imaging plate reader (BAS5000, Fujifilm, Tokyo, Japan), and the images were analyzed with the MultiGuage software (ver. 3.0, Fujifilm, Tokyo, Japan)."}, "[22]": {"target": "T17, Interleukin IL-1 R1 (Homo sapiens, UniProt P14778)", "T17 construct": "purchased Eurofins Panlabs Discovery Services (Taiwan)", "T17 sequence (P14778 18-569)": "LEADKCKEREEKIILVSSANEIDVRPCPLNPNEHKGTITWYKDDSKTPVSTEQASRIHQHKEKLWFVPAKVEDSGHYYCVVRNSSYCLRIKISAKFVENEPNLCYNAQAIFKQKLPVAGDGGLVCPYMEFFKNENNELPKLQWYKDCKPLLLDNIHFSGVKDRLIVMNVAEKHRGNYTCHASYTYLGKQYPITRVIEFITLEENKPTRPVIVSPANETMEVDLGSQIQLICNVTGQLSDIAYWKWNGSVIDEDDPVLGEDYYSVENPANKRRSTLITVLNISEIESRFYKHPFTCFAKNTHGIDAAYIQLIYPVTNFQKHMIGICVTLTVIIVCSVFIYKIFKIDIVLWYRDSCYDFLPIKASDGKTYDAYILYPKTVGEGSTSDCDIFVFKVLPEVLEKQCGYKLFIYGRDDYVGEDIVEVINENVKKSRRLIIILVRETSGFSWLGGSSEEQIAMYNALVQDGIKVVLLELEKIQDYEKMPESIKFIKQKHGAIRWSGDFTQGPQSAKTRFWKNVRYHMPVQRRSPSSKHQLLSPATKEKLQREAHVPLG", "assay": "off-target screen panel", "type": "binding", "details": "Human recombinant, [^125I]Interleukin-1β"}, "[23]": {"target": "T18, Melatonin MT1 (Homo sapiens, UniProt P48039)", "T18 construct": "purchased Eurofins Panlabs Discovery Services (Taiwan)", "assay": "off-target screen panel", "type": "binding", "details": "Human recombinant, [^125I]2-Iodomelatonin"}, "[24]": {"test_system": "Imidazoline I2, Central", "assay": "off-target screen panel", "type": "binding", "details": "Rat cerebral cortex, [^3H]Idazoxan"}, "[25]": {"test_system": "PDE4", "assay": "off-target screen panel", "type": "binding", "details": "Rat brain, [^3H]Rolipram"}, "[26]": {"target": "T19, Histamine H3 (Homo sapiens, UniProt Q9Y5N1)", "T19 construct": "purchased Eurofins Panlabs Discovery Services (Taiwan)", "assay": "off-target screen panel", "type": "binding", "details": "Human recombinant, [^3H]N-α-Methylhistamine"}, "[27]": {"target": "T20, Adrenergic α1A (Rattus norvegicus, UniProt P43140)", "T20 construct": "purchased Eurofins Panlabs Discovery Services (Taiwan)", "assay": "off-target screen panel", "type": "binding", "details": "Rat submaxillary gland, [^3H]Prazosin"}, "[28]": {"target": "T21, Tachykinin NK1 (Homo sapiens, UniProt P25103)", "T21 construct": "purchased Eurofins Panlabs Discovery Services (Taiwan)", "assay": "off-target screen panel", "type": "binding", "details": "Human recombinant, [^3H]Substance P"}, "[29]": {"target": "T22, Opiate δ1 (OP1, DOP) (Homo sapiens, UniProt P41143)", "T22 construct": "purchased Eurofins Panlabs Discovery Services (Taiwan)", "assay": "off-target screen panel", "type": "binding", "details": "Human recombinant, [^3H]Naltrindole"}}, "data": [{"smiles": "C[C@@H]1CC[C@H](C)N(c2nnc3c(N)ncc(C#N)n23)C1", "note": "(relative stereo) [MTP38, 8-amino-3-(2S*,5R*-dimethyl-1-piperidyl)-[1,2,4]triazolo[4,3-a]pyrazine-5-carbonitrile]", "values": [{"measurement": "inhibition at 1 µM", "setting": "[1]", "value": 10, "unit": "%"}, {"measurement": "inhibition at 1 µM", "setting": "[2]", "value": -20, "unit": "%"}, {"measurement": "inhibition at 1 µM", "setting": "[3]", "value": 6, "unit": "%"}, {"measurement": "inhibition at 1 µM", "setting": "[4]", "value": 4, "unit": "%"}, {"measurement": "Inhibition (%) at 1 μM", "setting": "[5]", "value": -10, "unit": "%"}, {"measurement": "inhibition at 1 µM", "setting": "[6]", "value": 1, "unit": "%"}, {"measurement": "inhibition at 1 µM", "setting": "[7]", "value": 0, "unit": "%"}, {"measurement": "Inhibition (%) at 1 μM", "setting": "[8]", "value": 7, "unit": "%"}, {"measurement": "inhibition at 1 µM", "setting": "[9]", "value": -9, "unit": "%"}, {"measurement": "inhibition at 1 µM", "setting": "[10]", "value": -15, "unit": "%"}, {"measurement": "inhibition at 1 µM", "setting": "[11]", "value": 4, "unit": "%"}, {"measurement": "inhibition at 1 µM", "setting": "[12]", "value": -10, "unit": "%"}, {"measurement": "inhibition at 1 µM", "setting": "[13]", "value": -1, "unit": "%"}, {"measurement": "inhibition at 1 µM", "setting": "[14]", "value": -14, "unit": "%"}, {"measurement": "Inhibition (%) at 1 μM", "setting": "[15]", "value": -5, "unit": "%"}, {"measurement": "inhibition at 1 µM", "setting": "[16]", "value": -2, "unit": "%"}, {"measurement": "inhibition at 1 µM", "setting": "[17]", "value": -3, "unit": "%"}, {"measurement": "inhibition at 1 µM", "setting": "[18]", "value": 9, "unit": "%"}, {"measurement": "inhibition at 1 µM", "setting": "[19]", "value": 0, "unit": "%"}, {"measurement": "inhibition at 1 µM", "setting": "[20]", "value": 9, "unit": "%"}, {"measurement": "effect of blocker on striatal radioactivity of [^11C]MTP38", "setting": "[21]", "value": "reduced the striatal radioactivity"}, {"measurement": "inhibition at 1 µM", "setting": "[22]", "value": -5, "unit": "%"}, {"measurement": "inhibition at 1 µM", "setting": "[23]", "value": 7, "unit": "%"}, {"measurement": "Inhibition (%) at 1 μM", "setting": "[24]", "value": -8, "unit": "%"}, {"measurement": "Inhibition (%) at 1 μM", "setting": "[25]", "value": 74, "unit": "%"}, {"measurement": "inhibition at 1 µM", "setting": "[26]", "value": 9, "unit": "%"}, {"measurement": "inhibition at 1 µM", "setting": "[27]", "value": 8, "unit": "%"}, {"measurement": "inhibition at 1 µM", "setting": "[28]", "value": 9, "unit": "%"}, {"measurement": "inhibition at 1 µM", "setting": "[29]", "value": -4, "unit": "%"}]}]}
